# Literature values in patent US20030152481A1 (priority 2002, published 2003).
# Settings: rat, in vivo
structure (smiles),measurement,value
OCCc1ccccc1 [2-phenylethanol],oral LD50,1790 mg/kg
